Source: patent US6780854B2, “Orally active androgens” (Akzo Nobel NV, priority 1999, dated 2004)

Key:
serum LH = assay: LH suppression assay: determination of oral activity; format: in vivo; settings: Rattus norvegicus; mature male castrated rats; po daily for 4 days in arachis oil; serum LH 3 hours after last oral dose; read-out: ED50 (po) required to suppress serum LH for 50% (±10%)
Description: The LH Suppression Assay: Determination of Oral Activity
The in vivo potency (po) of several androgens of the invention was determined in a mature male castrated rat model, in comparison wih Segaloff compound. In this model serum LH is high (50× fold higher than with intact rats, due to the absence of the negative feedback of testicular testosterone). These rats are po treated for 4 days daily with a given compound of the invention in a suspension fluid of arachis oil. Before dosing and 3 hours after the last oral dose blood is collected via tail vene and in the serum LH is determined. Potency (po) of the androgens (ED50) are expressed as the amount (mg/kg) of androgen which suppresses serum LH for 50% (±10%).
The rat LH Time-Resolved Immuno Fluorometric Assay (TR-IFMA) has been developed in house using home made reagents, a monoclonal catching antibody directed against the β-subunit of human chorion gonadotrophin (hCG, which cross react with rat β-subunit) and a biotin labelled detecting antibody (rabbit polyclonal antibody directed against the alfa-subunit of recombinant rat LH). Recombinant rat LH was prepared according to the methods described by Hakola et al (1997). In this two-site-IFMA, only intact rat LH is determined by a final incubation with streptavidin-europium. The detection in the IFMA is based on fluorescence of the lanthanide europium during a relative long exitation period. The concentration range of rat LH standard is 0.001-10 ng/ml, for optimal accuracy measurements of serum LH serum samples were diluted 8-times with assay buffer [Hakola, K., Boogaart, P. V., Mulders, J., de Leeuw, R., Schoonen, W., Heyst, J. V., Swolfs, A., Casteren, J. V., Huhtaniemi, I., and Kloosterboer, H. J., Recombinant rat luteinizing hormone; production by Chinese hamster ovary cells, purification and functional characterization, Molecular & Cellular Endocrinology 128, 47 (1997)].

[1] = t1/2 after incubation with human hepatocytes (metabolic stability); format: in vitro ADME; settings: male, cryopreserved human hepatocytes in suspension; 10 nM compound; cryopreserved human hepatocyte suspension, 37° C.; incubations stopped after 0.5, 1 and 3 h; LC-MS/MS
Description: Determination of t1′2 of Androgens of the Invention after Incubation with Human Hepatocytes
The half-life of a compound as a result of contact with human hepatocytes holds as a reliable indication of metabolic stability. As it is well known that the absorption of this class of steroids is high, this assay provides an in vitro model for oral activity in humans.
Hepatocytes collected from healthy young (25-45 year) male organ donors were cryo preserved in liquid nitrogen and kept there until use. They were thawed at 37° C. in a waterbath, placed immediately on ice, washed twice in one volume of cold (4° C.) incubation medium [William's medium E (without phenol red) with Glutamax I®, gentamicin 50 μg/ml, insulin 1 μM, hydrocortisone hemisuccinate 10 μM, fetal calf serum 0% (v/v)], counted and the viability checked by Trypan blue exclusion. Cells were incubated as suspensions in 12-wells (non-coated) plates at a nominal density of 0.5×10^6 cells/well in 1.5 ml medium at 37° C. with an air/O2/CO2 mixture (55/40/5). The plates were set on an orbital shaker at approximately 10 rpm.
The hepatocytes were incubated with 10 nM final concentration of the compound to be tested. The incubations were stopped after 0.5, 1 and 3 h by pipetting the whole incubation mixture into a glass tube and adding one volume of acetone on ice. The acetone was dried under a nitrogen flow at room temperature, the volume adjusted to 1.5 ml and the tubes were centrifuged at 4° C. at 10.000×g for 30 min. The de-proteinized supernatants were collected for LC-MS/MS analysis.

CC[C@@H]1CC2=CC(=O)CC[C@@H]2[C@H]2CC[C@@]3(C)C(=CC[C@@H]3O)[C@H]12 [Example 1a, (7α,17β)-7-Ethyl-17-hydroxyestra-4,14-dien-3-one]
ED50 (serum LH): 0.2 mg/kg
half-life at 10 nM [1]: 2.62 h

C=C[C@@H]1CC2=CC(=O)CC[C@@H]2[C@H]2CC[C@@]3(C)C(=CC[C@@H]3O)[C@@H]21 [Example 2, (7α,17β)-7-Ethenyl-17-hydroxyestra-4,14-dien-3-one]
ED50 (serum LH): 0.5 mg/kg
half-life at 10 nM [1]: 0.667 h

C[C@@H]1CC2=CC(=O)CC[C@@H]2[C@H]2CC[C@@]3(C)C(=CC[C@@H]3O)[C@@H]21 [Segaloff compound, (7α,17β)-7-Methyl-17-hydroxyestra-4,14-dien-3-one, reference compound]
ED50 (serum LH): 5 mg/kg
half-life at 10 nM [1]: 1 h
